target: LRRK2 G2019S enzyme (Homo sapiens (Human), UniProt Q5S007, G2019S); experiment: LRRK2 G2019S TR-FRET biochemical kinase assay (LRRKtide substrate); details: Table D-4; 5 nM LRRK2, 134 μM ATP, 60 minute reaction, 23° C.
Method in brief: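 5 nM LRRK2 G2019S preincubated 20 min with LRRKtide and compound (3.162-fold dilution series) in Tris pH 7.5, MgCl2, EGTA, Brij-35, DTT, then reacted 60 min at 23 °C with 134 μM ATP. EDTA-stopped; pLRRKtide antibody detection, TR-FRET read at 340 nm excitation, 520/490–495 nm emission.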

Chain of LRRK2 G2019S enzyme (Q5S007 whole entry G2019S): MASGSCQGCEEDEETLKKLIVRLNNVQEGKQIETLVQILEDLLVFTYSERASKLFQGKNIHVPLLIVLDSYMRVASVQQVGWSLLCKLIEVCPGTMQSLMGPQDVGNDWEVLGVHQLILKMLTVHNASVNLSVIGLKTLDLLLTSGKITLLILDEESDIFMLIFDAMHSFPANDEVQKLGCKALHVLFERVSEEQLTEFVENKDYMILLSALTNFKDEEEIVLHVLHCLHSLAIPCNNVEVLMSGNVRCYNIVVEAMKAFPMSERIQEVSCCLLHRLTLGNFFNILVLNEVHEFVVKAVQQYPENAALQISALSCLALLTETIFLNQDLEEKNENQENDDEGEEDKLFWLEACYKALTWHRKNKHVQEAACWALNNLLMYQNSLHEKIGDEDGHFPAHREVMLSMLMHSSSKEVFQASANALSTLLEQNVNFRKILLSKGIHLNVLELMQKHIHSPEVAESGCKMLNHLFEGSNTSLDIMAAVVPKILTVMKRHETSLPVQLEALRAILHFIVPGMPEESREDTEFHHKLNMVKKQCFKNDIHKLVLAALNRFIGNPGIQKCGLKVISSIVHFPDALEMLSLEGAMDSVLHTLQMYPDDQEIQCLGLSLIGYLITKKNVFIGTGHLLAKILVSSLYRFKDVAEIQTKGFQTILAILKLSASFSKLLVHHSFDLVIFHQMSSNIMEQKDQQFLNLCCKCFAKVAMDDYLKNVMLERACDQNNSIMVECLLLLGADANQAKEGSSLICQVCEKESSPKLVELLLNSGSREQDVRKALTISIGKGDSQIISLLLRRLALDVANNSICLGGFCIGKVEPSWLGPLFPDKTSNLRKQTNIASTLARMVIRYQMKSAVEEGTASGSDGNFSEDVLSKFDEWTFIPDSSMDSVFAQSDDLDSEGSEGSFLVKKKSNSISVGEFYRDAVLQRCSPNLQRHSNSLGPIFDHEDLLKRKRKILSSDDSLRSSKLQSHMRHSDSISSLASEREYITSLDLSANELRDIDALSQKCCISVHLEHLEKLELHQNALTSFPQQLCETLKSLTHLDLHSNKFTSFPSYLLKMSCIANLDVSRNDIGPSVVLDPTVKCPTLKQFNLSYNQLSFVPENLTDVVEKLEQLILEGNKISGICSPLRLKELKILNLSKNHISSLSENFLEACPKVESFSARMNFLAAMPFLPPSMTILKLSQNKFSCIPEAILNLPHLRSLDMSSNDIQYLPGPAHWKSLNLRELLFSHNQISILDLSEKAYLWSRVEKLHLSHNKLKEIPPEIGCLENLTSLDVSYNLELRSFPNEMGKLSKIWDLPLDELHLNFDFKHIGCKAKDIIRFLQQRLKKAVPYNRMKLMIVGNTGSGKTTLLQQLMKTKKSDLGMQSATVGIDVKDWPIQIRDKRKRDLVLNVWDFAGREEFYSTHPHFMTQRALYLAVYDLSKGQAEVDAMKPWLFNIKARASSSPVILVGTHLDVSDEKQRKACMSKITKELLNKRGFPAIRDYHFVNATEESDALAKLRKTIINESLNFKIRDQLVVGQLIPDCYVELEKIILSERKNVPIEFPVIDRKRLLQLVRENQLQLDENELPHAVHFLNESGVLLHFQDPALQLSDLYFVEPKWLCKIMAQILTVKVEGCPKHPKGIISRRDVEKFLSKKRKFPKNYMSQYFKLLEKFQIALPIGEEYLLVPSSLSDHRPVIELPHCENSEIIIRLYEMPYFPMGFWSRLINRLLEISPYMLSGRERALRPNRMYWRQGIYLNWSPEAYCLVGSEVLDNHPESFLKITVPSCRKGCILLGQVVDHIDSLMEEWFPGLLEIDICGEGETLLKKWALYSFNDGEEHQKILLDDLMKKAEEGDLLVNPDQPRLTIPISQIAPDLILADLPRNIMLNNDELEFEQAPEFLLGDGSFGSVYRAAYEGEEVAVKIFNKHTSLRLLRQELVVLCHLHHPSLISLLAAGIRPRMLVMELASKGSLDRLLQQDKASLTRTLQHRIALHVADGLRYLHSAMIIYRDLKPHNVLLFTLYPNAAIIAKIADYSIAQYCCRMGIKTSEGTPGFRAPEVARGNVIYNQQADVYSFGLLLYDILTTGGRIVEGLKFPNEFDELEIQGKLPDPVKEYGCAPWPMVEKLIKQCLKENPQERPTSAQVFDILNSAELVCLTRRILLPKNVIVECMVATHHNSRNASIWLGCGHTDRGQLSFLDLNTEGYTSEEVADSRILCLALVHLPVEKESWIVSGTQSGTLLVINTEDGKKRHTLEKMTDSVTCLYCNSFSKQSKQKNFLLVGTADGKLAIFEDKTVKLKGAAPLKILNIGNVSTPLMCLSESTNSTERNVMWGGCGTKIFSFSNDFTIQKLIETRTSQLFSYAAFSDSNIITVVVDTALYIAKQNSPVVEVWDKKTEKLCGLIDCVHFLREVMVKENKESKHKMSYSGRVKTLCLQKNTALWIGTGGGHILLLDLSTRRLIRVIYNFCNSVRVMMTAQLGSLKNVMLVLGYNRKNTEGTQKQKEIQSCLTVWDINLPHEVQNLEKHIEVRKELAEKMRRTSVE

**Q.** Which IC50 does the source give for `CNc1nc(Nc2cn([C@H]3C[C@H](OC(F)F)C3)nc2C)ncc1C(F)(F)F` [Compound D-26, trans-N2-[1-[3-(difluoromethoxy)cyclobutyl]-3-methyl-pyrazol-4-yl]-N4-methyl-5-(trifluoromethyl)pyrimidine-2,4-diamine] here?
**A.** Its IC50 is less than 30 nM.

**Q.** Which IC50 does the source give for `CNc1nc(Nc2cn([C@H]3C[C@@H](n4cccn4)C3)nc2C)ncc1C(F)(F)F` [Compound D-27, cis-N4-methyl-N2-[3-methyl-1-(3-pyrazol-1-ylcyclobutyl)pyrazol-4-yl]-5-(trifluoromethyl)pyrimidine-2,4-diamine] here?
**A.** The IC50 was less than 30 nM.

**Q.** How did the IC50 turn out when `CNc1nc(Nc2cn([C@H]3C[C@@H](S(C)(=O)=O)C3)nc2C)ncc1C(F)(F)F` [Compound D-28, cis-N4-methyl-N2-[3-methyl-1-(3-methylsulfonylcyclobutyl)pyrazol-4-yl]-5-(trifluoromethyl)pyrimidine-2,4-diamine] was run?
**A.** The IC50 was less than 30 nM.

**Q.** `CNc1nc(Nc2cnn([C@H]3C[C@H](CC#N)C3)c2C)ncc1C(F)(F)F` [Compound D-29, trans-2-[3-[4-[[5-(difluoromethyl-fluoranyl)-4-(methylamino)pyrimidin-2-yl]amino]-5-methyl-pyrazol-1-yl]cyclobutyl]acetonitrile] was tested. Which IC50 did it give?
**A.** The IC50 was less than 30 nM.

**Q.** How did the IC50 turn out when `CNc1nc(Nc2cn([C@H]3C[C@H](CC#N)C3)nc2C)ncc1C(F)(F)F` [Compound D-30, trans-2-[3-[4-[[5-(difluoromethyl-fluoranyl)-4-(methylamino)pyrimidin-2-yl]amino]-3-methyl-pyrazol-1-yl]cyclobutyl]acetonitrile] was run?
**A.** Its IC50 is less than 30 nM.

**Q.** `CNc1nc(Nc2cnn([C@H]3C[C@H](COC(F)F)C3)c2C)ncc1C(F)(F)F` [Compound D-31, trans-N2-[1-[3-(difluoromethoxymethyl)cyclobutyl]-5-methyl-pyrazol-4-yl]-5-(difluoromethyl-fluoranyl)-N4-methyl-pyrimidine-2,4-diamine] was tested. Which IC50 did it give?
**A.** Its IC50 is less than 30 nM.

**Q.** Which IC50 does the source give for `CNc1nc(Nc2cn([C@H]3C[C@H](COC(F)F)C3)nc2C)ncc1C(F)(F)F` [Compound D-32, trans-N2-[1-[3-(difluoromethoxymethyl)cyclobutyl]-3-methyl-pyrazol-4-yl]-5-(difluoromethyl-fluoranyl)-N4-methyl-pyrimidine-2,4-diamine] here?
**A.** The IC50 was less than 30 nM.

**Q.** `CNc1nc(Nc2cnn(CC3(CC#N)CC3)c2Cl)ncc1C(F)(F)F` [Compound D-33, 2-(1-((5-chloro-4-((4-(methylamino)-5-(trifluoromethyl)pyrimidin-2-yl)amino)-1H-pyrazol-1-yl)methyl)cyclopropyl)acetonitrile] was tested. Which IC50 did it give?
**A.** Its IC50 is less than 30 nM.

**Q.** `CNc1nc(Nc2cn(C3CCCn4ccnc43)nc2C)ncc1C(F)(F)F` [Compound D-34, N^4-methyl-N^2-(3-methyl-1-(5,6,7,8-tetrahydroimidazo[1,2-a]pyridin-8-yl)-1H-pyrazol-4-yl)-5-(trifluoromethyl)pyrimidine-2,4-diamine] was tested. Which IC50 did it give?
**A.** The IC50 was less than 30 nM.

**Q.** For `CNc1nc(Nc2cn(C3CCc4c(C)noc43)nc2C)ncc1C(F)(F)F` [Compound D-35, N^4-methyl-N^2-(3-methyl-1-(3-methyl-5,6-dihydro-4H-cyclopenta[d]isoxazol-6-yl)-1H-pyrazol-4-yl)-5-(trifluoromethyl)pyrimidine-2,4-diamine], which IC50 is on record?
**A.** Its IC50 is less than 30 nM.

**Q.** How did the IC50 turn out when `CNc1nc(Nc2cn(C3CCn4nccc43)nc2C)ncc1C(F)(F)F` [Compound D-36, N^2-(1-(5,6-dihydro-4H-pyrrolo[1,2-b]pyrazol-4-yl)-3-methyl-1H-pyrazol-4-yl)-N^4-methyl-5-(trifluoromethyl)pyrimidine-2,4-diamine] was run?
**A.** Its IC50 is greater than 60 nM.

**Q.** How did the IC50 turn out when `CNc1nc(Nc2cn(C3CCc4c3cnn4C)nc2C)ncc1C(F)(F)F` [Compound D-37, N^4-methyl-N^2-(3-methyl-1-(1-methyl-1,4,5,6-tetrahydrocyclopenta[c]pyrazol-4-yl)-1H-pyrazol-4-yl)-5-(trifluoromethyl)pyrimidine-2,4-diamine] was run?
**A.** The IC50 was 30 to 60 nM.

**Q.** With `CCSc1nc(Nc2cn(C(C)(C)C#N)nc2C)ncc1Cl` [Compound D-44, 2-[4-[(5-chloro-4-ethylsulfanyl-pyrimidin-2-yl)amino]-3-methyl-pyrazol-1-yl]-2-methyl-propanenitrile] as the compound, how does the IC50 read?
**A.** The IC50 was less than 30 nM.

**Q.** `CCSc1nc(Nc2cn(C(C)(C)C#N)nc2C)ncc1C(F)(F)F` [Compound D-45, 2-[4-[[4-ethylsulfanyl-5-(trifluoromethyl)pyrimidin-2-yl]amino]-3-methyl-pyrazol-1-yl]-2-methyl-propanenitrile] was tested. Which IC50 did it give?
**A.** Its IC50 is less than 30 nM.

**Q.** With `CSc1nc(Nc2cn(C(C)(C)C#N)nc2C)ncc1C(F)(F)F` [Compound D-46, 2-methyl-2-[3-methyl-4-[[4-methylsulfanyl-5-(trifluoromethyl)pyrimidin-2-yl]amino]pyrazol-1-yl]propanenitrile] as the compound, how does the IC50 read?
**A.** The IC50 was 30 to 60 nM.

**Q.** With `CCSc1nc(Nc2cn(C(C)(C)C#N)nc2C)ncc1C#N` [Compound D-47, 2-[[1-(1-cyano-1-methyl-ethyl)-3-methyl-pyrazol-4-yl]amino]-4-ethylsulfanyl-pyrimidine-5-carbonitrile] as the compound, how does the IC50 read?
**A.** Its IC50 is greater than 60 nM.

**Q.** `CNc1nc(Nc2cnn(C(C)COC(F)F)c2C)ncc1C(F)(F)F` [Compound D-48, N2-[1-[2-(difluoromethoxy)-1-methyl-ethyl]-5-methyl-pyrazol-4-yl]-5-(difluoromethyl-fluoranyl)-N4-methyl-pyrimidine-2,4-diamine] was tested. Which IC50 did it give?
**A.** The IC50 was less than 30 nM.

**Q.** How did the IC50 turn out when `CNc1nc(Nc2cnn([C@H]3C[C@@H](n4cccn4)C3)c2C)ncc1C(F)(F)F` [Compound D-49, cis-N4-methyl-N2-[5-methyl-1-(3-pyrazol-1-ylcyclobutyl)pyrazol-4-yl]-5-(trifluoromethyl)pyrimidine-2,4-diamine] was run?
**A.** The IC50 was less than 30 nM.

**Q.** With `CNc1nc(Nc2cnn([C@H]3C[C@@H](S(C)(=O)=O)C3)c2C)ncc1C(F)(F)F` [Compound D-50, cis-N4-methyl-N2-[5-methyl-1-(3-methylsulfonylcyclobutyl)pyrazol-4-yl]-5-(trifluoromethyl)pyrimidine-2,4-diamine] as the compound, how does the IC50 read?
**A.** Its IC50 is less than 30 nM.

**Q.** For `CNc1nc(Nc2cnn(C3CCc4c3cnn4C)c2C)ncc1C(F)(F)F` [Compound D-56], which IC50 is on record?
**A.** The IC50 was less than 30 nM.

**Q.** Which IC50 does the source give for `CCNc1nc(Nc2cn(C3CCc4ncsc43)nc2C)ncc1C(F)(F)F` [Compound D-57] here?
**A.** The IC50 was less than 30 nM.

**Q.** `CCNc1nc(Nc2cnn([C@H]3C[C@H](n4nccn4)C3)c2C)ncc1C(F)(F)F` [Compound D-58] was tested. Which IC50 did it give?
**A.** The IC50 was less than 30 nM.

**Q.** `CCNc1nc(Nc2cnn([C@H]3C[C@@H](n4cncn4)C3)c2C)ncc1C(F)(F)F` [Compound D-59] was tested. Which IC50 did it give?
**A.** Its IC50 is less than 30 nM.

**Q.** With `CCNc1nc(Nc2cnn(C3Cc4nccn4C3)c2C)ncc1C(F)(F)F` [Compound D-60] as the compound, how does the IC50 read?
**A.** The IC50 was less than 30 nM.

**Q.** How did the IC50 turn out when `CCNc1nc(Nc2cnn([C@H]3C[C@H](n4ncnc4C(F)(F)F)C3)c2C)ncc1C(F)(F)F` [Compound D-61] was run?
**A.** The IC50 was less than 30 nM.

**Q.** `CCNc1nc(Nc2cn(C3CCn4ccnc43)nc2Cl)ncc1C(F)(F)F` [Compound D-62] was tested. Which IC50 did it give?
**A.** The IC50 was greater than 60 nM.

**Q.** With `Cc1c(Nc2ncc(C(F)(F)F)c(NCC(F)F)n2)cnn1[C@H]1C[C@@H](n2cccn2)C1` [Compound D-63] as the compound, how does the IC50 read?
**A.** The IC50 was less than 30 nM.

**Q.** Which IC50 does the source give for `CNc1nc(Nc2cnn([C@H]3C[C@H](n4cc(F)cn4)C3)c2C)ncc1C(F)(F)F` [Compound D-64] here?
**A.** Its IC50 is less than 30 nM.

**Q.** With `CCNc1nc(Nc2cnn(C3CCn4nccc43)c2C)ncc1C(F)(F)F` [Compound D-65] as the compound, how does the IC50 read?
**A.** The IC50 was less than 30 nM.

**Q.** How did the IC50 turn out when `CCNc1nc(Nc2cn([C@H]3C[C@H](c4cocn4)C3)nc2C)ncc1C(F)(F)F` [Compound D-66] was run?
**A.** The IC50 was less than 30 nM.

**Q.** `CNc1nc(Nc2cn(C3CCn4cncc43)nc2C)ncc1C(F)(F)F` [Compound D-67] was tested. Which IC50 did it give?
**A.** Its IC50 is greater than 60 nM.

**Q.** How did the IC50 turn out when `CCOc1nc(Nc2cn(C3CCn4ccnc43)nc2C)ncc1C(F)(F)F` [Compound D-68] was run?
**A.** Its IC50 is greater than 60 nM.

Reference: patent publication US11214565B2, “Compound, compositions, and methods” (Denali Therapeutics Inc., priority 2015, dated 2022)
